These results are taken from PMC11059093 (Frontiers in Chemistry, 2024).

Some results are limits rather than exact numbers.

The test system of one data set is BV2. Briefly: Cytotoxicity assay on BV2 cells. In kind it is cell-based. The following applies: BV2, 20 μM. The procedure: (§1) To further investigate the bioactivity of the compounds, cytotoxicity was evaluated on SH-SY5Y and BV2 cell lines (Figures 2A, B).
(§2) FIGURE 2 Cytotoxicity assay of 6b and 6c on SH-SY5Y (A) and BV2 (B). Protective effect of 6b and 6c against H2O2 induced SH-SY5Y oxidative stress (C).

A short description of data set [1]: Oxygen radical absorbance capacity (ORAC-FL) assay. As to conditions: compounds 5 µM, mean of n = 3 ± SD.
Experimental: The solution of 2,2′-azobis- (amidinopropane) dihydrochloride (AAPH) was prepared to a final concentration of 40 mM. The mixture of the tested compounds (20 µL) and FL (120 μL; 70 nM) was pre-incubated for 10 min at 37°C, 60 µL of the AAPH solution was added. The fluorescence was recorded every minute for 120 min (excitation, 485 nm; emission, 520 nm). The antioxidant curves (fluorescence versus time) were normalized to the curve of the blank.
Where f0 is the initial fluorescence reading at 0 min and fi is the fluorescence reading at time i. The net AUC was calculated by the expression: AUCsample—AUCblank. Regression equations between net AUC and Trolox concentration were calculated. ORAC-FL value of the tested compound expressed as Trolox equivalents.
For data set [2], the target named is T1, Cu^2+-induced Aβ1-42 aggregation (Homo sapiens, UniProt P05067).
T1 construct: Aβ1-42 (Sigma-Aldrich A9810, 20 μM) was dissolved in HEPES buffer; purchased Sigma-Aldrich A9810
Briefly: Cu^2+-induced Aβ1-42 aggregation, thioflavin T fluorometric detection. In kind it is biochemical. As to conditions: ThT, compound stock 150 μM. The procedure: To further detect the ability of compounds 6b, CQ and MT to disaggregate or inhibit the Cu^2+-induced Aβ1-42 aggregation, we conducted thioflavin T fluorometric detection ([Hu et al., 2019]).
Detection of the compounds for disaggregated and inhibitory effects on Cu^2+ induced Aβ1-42 aggregation. Aβ1-42 (Sigma-Aldrich A9810, 20 μM) was dissolved in HEPES buffer (pH = 6.6, containing 1% ammonium hydroxide). 10 μL of Aβ1-42 was previously incubated with or without Cu^2+ at 37°C for 3 days to pre-fibrillation. 10 μL of 6b, CQ, and MT (150 μM, in DMSO) were incubated before or after the pre-fibrillation of Aβ1-42 at 37°C for 1 day. After incubation, 170 μL of thioflavin T (5 μM, in 50 mM glycine-NaOH buffer) was added to mix well. After incubation for 5 min, the Aβ1-42 aggregation was detected by Microplate Reader (HITACHI, F-4700) with excitation/emission at 450/485 nm.

The next data set deals with T2, Aβ1–42 (Homo sapiens, UniProt P05067).
T2 construct: Aβ1−42 (Sigma-Aldrich) was dissolved in NH4OH (1% v/v) to get a stock solution; purchased Sigma-Aldrich
Briefly: Inhibition of self-mediated Aβ1–42 aggregation, thioflavin T fluorescence assay. It is filed as biochemical. As to conditions: ThT assay, compounds 20 μM, mean of n = 3 ± SD.

Data set [3] relates to SH-SY5Y. Briefly: Cytotoxicity assay on SH-SY5Y cells. In kind it is cell-based. The procedure: as §1, §2
Data set [4] relates to SH-SY5Y. Briefly: Hydrogen peroxide induced oxidative stress (ROS, DCFH-DA probe) in SH-SY5Y cells. It is filed as cell-based. As to conditions: SH-SY5Y treated with 400 μM hydrogen peroxide for 12 h.
Excerpt: as §2
The effect of 6b and 6c on the oxidative stress of SH-SY5H cells induced by hydrogen peroxide was investigated using DCFH-DA as the fluorescent probe ([Xu et al., 2021]).

Data set [5] is described as follows: Metal-chelating study by UV spectrophotometry. The following applies: for Metal-chelating property: 50 µM compound with Cu^2+, Zn^2+, Fe^2+ or Fe^3+ (50 µM), HEPES pH 7.4, UV-vis; for Inflection point, concentration ratio of Cu^2+ to compound: 50 µM compound, 0–100 µM copper ion, inflection point method. In kind it is physicochemical. The procedure: To further evaluate multi-target anti-AD potential, the metal-chelating properties of 6b and 6c were determined by UV spectrophotometry ([Geng et al., 2012]; [Lu et al., 2013]; [Hu et al., 2019]). […] While co-incubated with Fe^3+ or Fe^2+, the intensity at 255 nm was in different degrees decreased. The same result occurred for 6c. […] Next, the chelation ratios of 6b and 6c to Cu^2+ were measured and calculated using the inflection point method (Figures 3B, D). The inflection point appears when the concentration ratio of compound Cu^2+ to 6b or 6c is 0.5, so it can be inferred that the chelation ratio of compound 6b and 6c to Cu^2+ is 2:1.
6b and 6c (50 µM) were incubated with CuSO4, FeSO4, FeCl3, or ZnCl2 (50 µM) in buffer (20 mM HEPES, 150 mM NaCl, pH 7.4) for 30 min, and the absorption spectras were recorded at room temperature. For the stoichiometry of the compound–Cu^2+ complex, a fixed amount of 6b and 6c (50 µM) was mixed with growing amounts of copper ion (0–100 µM), and the difference UV−vis spectra were examined to investigate the ratio of ligand/metal in the complex.

The nature of data set [6]: Parallel artificial membrane permeability assay for the blood-brain barrier (PAMPA-BBB). As to conditions: for pred (predicted BBB permeation): classified from PAMPA-BBB Pe.

T1 sequence (P05067 672-713 limits assumed): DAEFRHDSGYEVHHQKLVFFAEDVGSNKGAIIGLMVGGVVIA
T2 sequence (P05067 672-713 limits assumed): as above

For the compound `COc1ccc2[nH]cc(CCNC(=O)c3ccc4cccc(O)c4n3)c2c1` [Compound 6b, 8-hydroxy-N-(2-(5-methoxy-1H-indol-3-yl)ethyl)quinoline-2-carboxamide], the figures for the Cytotoxicity entry in the data set on BV2, in the data set with SH-SY5Y [3] (5 μM) and in the data set with SH-SY5Y [3] (10 μM) were “no significant cytotoxicity”, “no cytotoxicity” and “slight toxicity”, respectively. In data set [1], this compound showed an ORAC of 2.76 ± 0.01 Trolox equivalents. Also, in data set [2] (Figure 4A), the “Disaggregation of Cu^2+-induced Aβ1-42 aggregation” value is “significantly disaggregated”. Also, the “Inhibition of Cu^2+-induced Aβ1-42 aggregation” value in data set [2] (Figure 4B) was “distinct inhibitory effect”. For the same compound, at 20 µM the inhibition at Aβ1–42 was 63.2 ± 2.02%. Besides, the “ROS production after pretreatment” value with SH-SY5Y [4] is given as “reduced ROS production in a dose-dependent manner”. For the same compound, in data set [5], the Metal-chelating property result is reported as “possess metal-chelating properties”. Further, the “Inflection point, concentration ratio of Cu^2+ to compound” value in data set [5] was 0.5. Besides, the Papp in data set [6] (PAMPA) was determined as 6.91 ± 0.92 ×10⁻⁶ cm/s. The “P e” value in data set [6] (PAMPA, can cross the blood-brain barrier) is over 4.7. Further, the “pred (predicted BBB permeation)” value in data set [6] is on record as “CNS+ (Compounds of high BBB permeation (CNS+) Pe>4.7)”.

As for `O=C(NCCc1c[nH]c2ccc(O)cc12)c1ccc2cccc(O)c2n1` [Compound 6c, 8-hydroxy-N-(2-(5-hydroxy-1H-indol-3-yl)ethyl)quinoline-2-carboxamide], the Cytotoxicity result is “no significant cytotoxicity” with BV2, “no cytotoxicity” in the data set on SH-SY5Y [3] (5 μM) and “slight toxicity” with SH-SY5Y [3] (10 μM). In data set [1], this compound registered an ORAC of 3.23 ± 0.02 Trolox equivalents. Moreover, the inhibition at 20 µM at Aβ1–42 was found to be 40.3 ± 2.09%. Also, the “ROS production after pretreatment” value in the data set with SH-SY5Y [4] is given as “reduced ROS production in a dose-dependent manner”. Further, the Metal-chelating property entry in data set [5] is “possess metal-chelating properties”. Further, the “Inflection point, concentration ratio of Cu^2+ to compound” value in data set [5] was 0.5. In addition, in data set [6] (PAMPA), the Papp was determined as 2.96 ± 0.58 ×10⁻⁶ cm/s. Further, in data set [6], the “pred (predicted BBB permeation)” value is “CNS± (Compounds of uncertain BBB permeation (CNS+/ -) 4.7>Pe>1.8)”.

By inhibition is commonly meant the change of the read-out against control, counted positive when it falls. Read a low inhibition as a response near the control. For orientation: Papp means the rate of passage across a membrane or cell layer, normalised by area and donor concentration. Low values mean slow passage, high ones fast passage.
